“Also recorded” adds a separate entry of the source. Where two headings read alike, the source gives them in different places.
How the values were obtained:
C. elegans [1] = system: C. elegans
Method: C. elegans strains and maintenance. Animals were grown and maintained using standard C. elegans conditions at 20° C. on NGM plates and were fed E. coli strain HB101. N2 worms were used as wild-type and the following mutants and transgenic strains were used from Caenorhabditis Genetics Center (CGC, University of Minnesota): EU1 skn-1(zu67) (IV)/nT1[unc-?(n754); let-?], EU31 skn-1(zu135))/nT1[unc-?(n754); let-?], CL2166 dvIs19 [gst-4p::GFP::NLS], CL691 dvIs19 [gst-4p::GFP::NLS], skn-1(zu67)/nT [unc-?(n754) let-?], LG333 skn-1(zu135)/nT1[qIs51]; ldIs7[skn-1b/c::GFP], LG348 skn-1(zu135)/nT1[qIs51]; geIs9 [gpa-4p::skn-1b::GFP+rol-6(su1006)], LG357 skn-1(zu135)/nT1[qIs51]; geIs10 [ges-1p(long)::skn-1c::GFP+rol-6(su1006)], and LD1 ldIs7 [skn-1b/c::GFP+rol-6(su1006)].
Lifespan analysis. All lifespan assays were performed at 20° C. according to standard protocols described elsewhere. […] Worms were transferred to fresh plates every day after reaching adulthood, and every two days after reaching 10 days of age. Prodding test as described above was used to count the number of dead worms. Survival curve was plotted using Prism 7 and the significance of the curves calculated by Log-rank (Mantel-Cox) test.
RNA Interference. Synchronized L1 larvae were placed on NGM plates containing 1 mM IPTG and fed HT115 bacterial strain containing scramble or skn-1 RNAi plasmids. All the experiments were done at 20° C.

thioredoxin 1 (Trx1) = details: SH-SY5Y, after 24 h and 48 h
Method: Trx1 reduces the cysteine residues critical for binding of Nrf2 to AREs (Hansen et al., 2004).
Western Blot Analysis. Protein expression was determined by Western blot analysis. Equal amount of protein from each sample was run in Tris-glycine SDS PAGE gel, followed by transferring to PVDF membrane. After blocking the membrane with 5% milk for 1 hour at room temperature, the membrane was incubated further for 2 hours with antibodies specific for target proteins: Nrf2, pNrf2(S40) from Novus (Littleton, Colo.); Keap1, HO-1, NQO1, GCLc, GCLm and lamin B1 from Cell Signaling (Danvers, Mass.); GAPDH from Santa Cruz (Dallas, Tex.); β-Actin from Thermo Fisher (Waltham, Mass.). The membrane was subsequently incubated with species-specific HRP-conjugated secondary antibody followed by incubation with chemiluminescence substrate and imaging. The band intensity of each of the target proteins was quantified using ImageQuant software (GE Healthcare, Sweden). Western blot analysis on worm lystaes was done similarly. […] Equal amounts of protein were run on the gel and SKN-1 protein level was detected using anti-GFP antibody.

GSH and GSSG = details: SH-SY5Y, 10 μM, 24 h
Method: GSH is regulated by the rate-limiting enzyme GCL consisted of GCLc and GCLm subunits. […] The inventors then used extracellular lactate dehydrogenase cytotoxicity assay to measure cell survival.
Measurement of GSH/GSSG. The intracellular GSH and GSSG content were determined using a GSH/GSSG-Glo Assay kit (Promega, Fitchburg Wis.) following the manufacturer's instructions. Briefly, after treatment, half of the cells were lysed using total lysis buffer and the other GSSG lysis buffer for 5 minutes. Luciferin generation reagents (luciferin-NT plus Glutathione-S-Transferase) were then added into each well, followed by incubation for 30 minutes. Finally, luciferin detection reagents including Ultra-Glo™ Luciferase were aliquoted into each well. After 10-minute incubation, luminescence was read in a 96-well plate reader. GSH level was calculated by subtracting GSSG level from the total, and GSH/GSSG ratio was calculated as ([Total]−[GSSG])/[GSSG].

[2] = system: HEK293 tau aggregate-negative and aggregate-positive cells
Method: The inventors first measured the cell proliferation to evaluate the stress caused by expression of tau fibrils in aggregate-positive and negative cells (FIG. 6A). […] The inventors also measured the concentration of superoxide ions (O2-), a detrimental byproduct of oxidative phosphorylation, as an ROS representative. […] The inventors next measured expression of Nrf2 and HO-1 in the same cells (FIG. 6C). […] Aggregate-positive and -negative KD cells were treated with 200 μM H2O2 for 24 h. Cytotoxicity was measured as release of LDH.
Measurement of Reactive Oxygen Species. Superoxide concentration was measured by dihydroethidium (DHE). Black clear bottom 96 well plates were seeded with about 5000 HEK293 tau aggregate-negative (control) and aggregate-positive model cells per well and about 20000 SH-SY5Y cells (the NRF2 knockdown of both cell lines were also seeded). […] Fluorescence was measured by Spectramax Gemini XPS plate reader (Molecular Devices, Sunnyvale, Calif.) at 370 nm excitation and 420 nm emission wavelengths. […] Equal number of animals were transferred to a black bottom 96 well plate and fluorescence was measured same as above.

C. elegans [3] = assay: Rotenone stress test in worms; format: in vivo
Text: The inventors again used rotenone to elicit PD-like changes.
Rotenone stress test. […] After 3 days young adult worms were transferred to fresh NGM plates either preloaded with rotenone alone or rotenone plus any of the abovementioned compounds. Every worm was subjected to prodding test with a worm pick every day. A worm was scored as dead when not responding to three repeated proddings. Survival curve was plotted using Prism 7.

SH-SY5Y cells = details: 0, 10, 20 μM, 3 days
Method: Cells were stained by TMRE to tag active mitochondria. Florescence signal was quantified by Flow Jo software. […] ATP levels were measured by bioluminescent detection of luciferase activity. All data are presented normalized to cell number.
The mitochondrial membrane potential was measured as an indicator of cellular energetics and ATP content.

MEF cells = details: 10 μM, 24 and 48 hours
Method: Cells were then subjected to confocal analysis and mRFP-GFP (yellow representing autophagosome) and mRFP (red puncta representing autophagolysosomes) were recorded; scale bar, 10 gtm. […] The co-localization of mRFP with GFP signal from tfLC3 puncta was measured using ImageJ software.
To further validate the present invention autophagic flux using mRFP-GFP tandem fluorescent-tagged LC3 (tfLC3) was measured. tfLC3 protein is one of the most widely used markers for the detection of autophagosomes and autophagolysosomes, two key structures in macroautophagy (8). tfLC3 was knocked-in to monitor autophagic flux in MEF cells based on different pH stabilities of GFP and mRFP (9). In autophagosome environment both mRFP and GFP tags of tfLC3 can fluoresce so autophagosome appear as yellow puncta (green GFP+red mRFP). […] Rapamycin was used as a positive control.

GSK3β and Tau = assay: p-GSK3β and p-Tau in Aβ (1-42) treated primary neurons; details: 1 μM, 24 hours
Method: Cells were transfected with tdTomato (red) plasmid to visualize structural and morphological changes of neurons. Nuclei were stained with DAPI (blue) scale bar=10 μm. […] Densitometry values were normalized using actin as an internal control.
Immunofluorescence assays were performed and the phosphorylation status of GSK3β and Tau proteins were analyzed in primary cells using pGSK3β (S9) and pTau (S396) antibodies. Primary cortical neurons were isolated from the cortex of 0 day pups, cultured for two weeks, and were transfected with tdTomato plasmid to visualize structural and morphological changes of neurons. […] At the end of the treatment cells were fixed and immunostained with respective antibodies.

NNc1nncc2ccccc12 [Hydralazine]
Variation Compared to Control (%) (C. elegans [1]; EU1 skn-1(zu67), 100 μM Hyd (printed 100 IJM), FIG. 7G): +11.7%
Variation Compared to Control (%) (C. elegans [1]; EU31 skn-1(zu135), 100 μM Hyd (printed 100 IlM), FIG. 7G): +3.3%
Variation Compared to Control (%) (C. elegans [1]; LG348 (geIs9, skn-1b), 100 μM Hyd (printed 100 IJM), FIG. 7H): +10.8%
Variation Compared to Control (%) (C. elegans [1]; LG357 (geIs10, skn-1c), 100 μM Hyd (printed 100 FM), FIG. 7H): +2.7%
Variation Compared to Control (%) (C. elegans [1]; N2, 10 μM Hyd (printed 10 IJM), FIG. 7E): +4.82%
lifespan extension (C. elegans [1]; N2, 100 μM): ≤ 25%
Variation Compared to Control (%) (C. elegans [1]; N2, 100 μM Hyd (printed 100IJM), FIG. 7E): +24.4%
Variation Compared to Control (%) (C. elegans [1]; N2, 200 μM Hyd (printed 200 IlM), FIG. 7E): +13.3%
Variation Compared to Control (%) (C. elegans [1]; N2-Scramble RNAi, 100 μM (printed 100 IJM), FIG. 7F): +22.2%
Variation Compared to Control (%) (C. elegans [1]; N2-skn-1 RNAi, 100 μM, FIG. 7F): −5.4%
pro-longevity effect in skn-1(zu135) mutant and skn-1 knockdown worms (C. elegans [1]; in vivo): completely lost
extension of medium and maximum lifespan (C. elegans [1]; worms treated with hydralazine): at least 25%
increase of the amount of Trx1 (thioredoxin 1 (Trx1)): 25%
GSH/GSSG ratio, higher (GSH and GSSG): 5%
intracellular GSH (GSH and GSSG): increased GSH
concentration of O2− ions in aggregate-positive KD cells ([2]; Nrf2 knockdown): No significant change
concentration of superoxide ([2]; aggregate-positive and -negative cells, 24 h): decreased in a dose-dependent manner
protection against rotenone-induced death (C. elegans [3]; 100 μM pretreatment, rotenone 50 μM): protected from rotenone; also recorded: significantly protected
protection against rotenone in skn-1(zu135) mutant compared to N2 (C. elegans [3]; skn-1(zu135)): sharply decreased
total ATP content (SH-SY5Y cells): elevated ATP level in a concentration dependent manner
autophagic flux (autophagosomes, autophagolysosomes) (MEF cells): induction of autophagic flux
pGSK3β (S9) in primary cells (GSK3β and Tau): marked increase
pTau in primary cells (GSK3β and Tau): reduced level of pTau

Source: patent publication US20190298717A1 (BOARD OF REGENTS, THE UNIVERSITY OF TEXAS SYSTEM, priority 2016, published 2019)
